Source: patent publication US11162902B2, “Metasurfaces comprised of nanosphere oligomers with uniform narrow gap spacings, their method of fabrication and applications in sensing” (The Regents of the University of California, priority 2017, dated 2021)
In brackets after ≈: the same amount, converted by molar mass.

Tests used:
[1] = system: P. aeruginosa biofilms; assay: Antibiotic susceptibility measurements of surface-attached bacteria / biofilms (live/dead staining, dead cell fraction); assay type: cell-based, Pseudomonas aeruginosa; details: 600 μg·mL^−1 carbenicillin in PBS for 3 h; growth 6, 10, 15, 24 h; FIG. 18E
[2] = system: P. aeruginosa strain PA14; details: cited from earlier work

CC1(C)S[C@@H]2[C@H](NC(=O)C(C(=O)O)c3ccccc3)C(=O)N2[C@H]1C(=O)O (some centres unmarked) [carbenicillin]
antibiotic susceptibility of surface-attached bacteria at different stages of biofilm growth [1]: susceptibility decreased significantly with increasing growth time
minimum inhibitory concentration [2]: 128 µg/mL (≈ 338 µM)
